From patent US7635696B2, “Isoxazoline-indole derivatives with an improved antipsychotic and anxiolytic activity” (Janssen Pharmaceutica N.V., priority 2004, dated 2009) come the findings set out here.

For assay [1], the target named is T1, human 5HT transporter (Homo sapiens, UniProt P31645).
T1 construct: host or cells: HEK cells
The assay can be described thus: Binding experiment for 5-HT transporter ([3H]Paroxetine). As to conditions: transfected HEK cell membranes, [3H]Paroxetine; for IC50: read-out: pIC50 5HTT (converted). The procedure: (§1) The interaction of the compounds of Formula (I) with dopamine-receptors, h5HT-transporter and h5HT1A receptor was assessed in in vitro radioligand binding experiments. In general, a low concentration of a radioligand with a high binding affinity for a particular receptor or transporter is incubated with a sample of a tissue preparation enriched in a particular receptor or transporter or with a preparation of cells expressing cloned human receptors in a buffered medium. During the incubation, the radioligand binds to the receptor or transporter. When equilibrium of binding is reached, the receptor bound radioactivity is separated from the non-bound radioactivity, and the receptor- or transporter-bound activity is counted. The interaction of the test compounds with the receptor is assessed in competition binding experiments. Various concentrations of the test compound are added to the incubation mixture containing the receptor- or transporter preparation and the radioligand. The test compound in proportion to its binding affinity and its concentration inhibits binding of the radioligand.
Frozen human 5HT transporter-transfected HEK cells (Perkin Elmer, Brussels) were thawed and briefly homogenised using an Ultra-Turrax T25 homogeniser prior to dilution to an appropriate protein concentration optimised for specific and non-specific binding. [^3H]Paroxetine (NEN, specific activity 20 Ci/mmol) was diluted in Tris-HCl assay buffer containing NaCl and KCl (50 mM, 120 mM and 5 mM, respectively; pH 7.4) at a concentration of 5 nmol/L. Prepared radioligand (25 μl) was then incubated (60 min, 25° C.) with membrane preparations (200 μl) and with 25 μl of either 10% DMSO control, Inipramine (10^−6 mol/L final concentration), or compound of interest. Membrane-bound activity was detected by filtration through a Packard Filtermate harvester onto Unifilterplates pre-soaked in 0.1% PEI, washing with ice-cold assay buffer (3×4 ml). Filters were dried prior to addition of scintillation fluid and then counting in a Topcount scintillation counter. % Specific bound and competition binding curves were calculated using S-Plus software (Insightful).

For assay [2], the target named is T2, Human 5HT1A receptor (Homo sapiens, UniProt P08908).
T2 construct: expressed in transfected cells; host or cells: L929 cells (stably transfected)
T2 sequence (P08908 1-422): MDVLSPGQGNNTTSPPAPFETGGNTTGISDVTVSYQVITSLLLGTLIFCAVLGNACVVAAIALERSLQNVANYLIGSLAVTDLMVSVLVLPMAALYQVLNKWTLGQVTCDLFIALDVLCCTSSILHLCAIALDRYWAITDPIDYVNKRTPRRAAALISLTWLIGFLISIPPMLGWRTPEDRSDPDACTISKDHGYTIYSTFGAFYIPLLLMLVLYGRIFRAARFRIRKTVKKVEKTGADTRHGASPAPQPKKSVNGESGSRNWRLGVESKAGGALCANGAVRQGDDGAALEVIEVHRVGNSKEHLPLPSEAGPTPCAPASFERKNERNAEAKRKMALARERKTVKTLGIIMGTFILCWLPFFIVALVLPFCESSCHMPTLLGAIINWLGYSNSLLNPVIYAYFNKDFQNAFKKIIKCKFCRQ
Briefly: Binding experiment for 5-HT1A receptor ([3H]8OHDPAT). Conditions: transfected L929 cell membranes, [3H]8OHDPAT; for IC50: read-out: pIC50 5-HT1A (converted). Here is the method:
as §1
Human 5HT1A receptor-transfected L929 cells were collected by scraping into ice-cold Tris-HCl buffer (50 mM, pH 7.4). The suspension was centrifuged (23 500×g, 10 min, 4° C.) and pellets stored at −70° C. until required. They were then thawed and briefly homogenised using an Ultra-Turrax T25 homogeniser prior to dilution to an appropriate protein concentration optimised for specific and non-specific binding. [^3H]80HDPAT (NEN, specific activity 127 Ci/mmol) was diluted in Tris-HCl assay buffer containing CaCl2 (50 mM and 4 mM, respectively; pH 7.7) at a concentration of 5 nmol/L. Prepared radioligand (50 μl) was then incubated (30 min, 37° C.) with membrane preparations from L929 cells stably-transfected with the h5HT1A gene construct (400 μl) and with 50 μl of either the 10% DMSO control, spiroxatrine (10^−6 mol/L final concentration), or compound of interest. Membrane-bound activity was detected by filtration through a Packard Filtermate harvester onto Unifilterplates, washing with ice-cold Tris-HCl buffer (3×4 ml), followed by drying. Scintillation fluid was added and membranes were counted in a Topcount scintillation counter. % Specific bound and competition binding curves were calculated using S-Plus software (Insightful).

For assay [3], the target named is T3, Human Dopamine D2L receptor (Homo sapiens, UniProt P14416).
T3 construct: expressed in transfected cells; host or cells: CHO cells
T3 sequence (P14416 whole entry): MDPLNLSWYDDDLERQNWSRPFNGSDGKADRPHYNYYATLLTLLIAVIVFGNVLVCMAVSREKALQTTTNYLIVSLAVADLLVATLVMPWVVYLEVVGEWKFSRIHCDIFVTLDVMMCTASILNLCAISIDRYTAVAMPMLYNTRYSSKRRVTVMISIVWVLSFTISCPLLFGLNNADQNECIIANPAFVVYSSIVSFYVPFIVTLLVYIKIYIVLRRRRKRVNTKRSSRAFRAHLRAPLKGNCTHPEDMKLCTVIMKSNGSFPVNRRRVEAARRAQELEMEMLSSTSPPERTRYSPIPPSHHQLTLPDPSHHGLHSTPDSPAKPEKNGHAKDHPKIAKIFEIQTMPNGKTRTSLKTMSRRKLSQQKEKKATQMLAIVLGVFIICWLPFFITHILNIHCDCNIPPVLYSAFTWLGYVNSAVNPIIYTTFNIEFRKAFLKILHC
The assay can be described thus: Binding experiment for dopamine D2 receptor ([3H]Spiperone). As to conditions: D2L-transfected CHO cell membranes; for IC50: read-out: pIC50 D2 (converted). The procedure:
as §1
Human Dopamine D2L receptor-transfected CHO cells were collected by scraping into ice-cold Tris-HCl buffer (50 mM, pH 7.4). The suspension was centrifuged (23 500×g, 10 min, 4° C.) and pellets stored at −70° C. until required. They were then thawed and briefly homogenised using an Ultra-Turrax T25 homogeniser prior to dilution to an appropriate protein concentration optimised for specific and non-specific binding. [^3H]Spiperone (NEN, specific activity ˜70 Ci/mmol) was diluted in Tris-HCl assay buffer containing NaCl, CaCl2, MgCl2, KCl (50, 120, 2, 1, and 5 mM respectively, adjusted to pH 7.7 with HCl) at a concentration of 2 nmol/L. Prepared radioligand (50 μl) was then incubated (30 min, 37° C.) with membrane preparations pre-diluted to an appropriate protein concentration (400 μl), and with 50 μl of either the 10% DMSO control, Butaclamol (10^−6 mol/L final concentration), or compound of interest. Membrane-bound activity was detected by filtration through a Packard Filtermate harvester onto Unifilterplates, washing with ice-cold Tris-HCl buffer (50 mM; pH8.0; 3×4 ml). Filters were allowed to dry before adding scintillation fluid and counting in a Topcount scintillation counter. % Specific bound and competition binding curves were calculated using S-Plus software (Insightful).

Assay [4] deals with T4, Human Dopamine D3 receptor (Homo sapiens, UniProt P35462).
T4 construct: expressed in transfected cells; host or cells: CHO cells
T4 sequence (P35462 whole entry): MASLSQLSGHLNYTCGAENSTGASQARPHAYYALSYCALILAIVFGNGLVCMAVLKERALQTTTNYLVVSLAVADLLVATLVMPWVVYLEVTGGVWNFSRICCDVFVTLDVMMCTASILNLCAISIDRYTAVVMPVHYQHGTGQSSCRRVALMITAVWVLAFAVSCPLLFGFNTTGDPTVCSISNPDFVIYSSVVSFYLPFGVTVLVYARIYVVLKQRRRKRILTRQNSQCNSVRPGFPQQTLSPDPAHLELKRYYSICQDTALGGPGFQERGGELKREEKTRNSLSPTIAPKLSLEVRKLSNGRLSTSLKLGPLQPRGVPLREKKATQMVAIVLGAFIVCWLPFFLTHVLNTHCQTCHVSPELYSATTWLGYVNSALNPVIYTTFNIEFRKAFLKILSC
The assay can be described thus: Binding experiment for dopamine D3 receptor ([125I]Iodosulpride). Conditions: transfected CHO cell membranes; for IC50: read-out: pIC50 D3 (converted). The procedure:
as §1
Human Dopamine D3 receptor-transfected CHO cells were collected by scraping into ice-cold Tris-HCl buffer (50 mM, pH 7.4). The suspension was centrifuged (23 500×g, 10 min, 4° C.) and pellets stored at −70° C. until required. They were then thawed and briefly homogenised using an Ultra-Turrax T25 homogeniser prior to dilution to an appropriate protein concentration optimised for specific and non-specific binding. [^125I]Iodosulpride (Amersham, specific activity 2000 Ci/mmol) was diluted in Tris-HCl assay buffer containing NaCl, CaCl2, MgCl2, KCl and BSA (50, 120, 2, 1, 5 mM, 0.1% respectively, adjusted to pH 7.7 with HCl) at a concentration of 2 nmol/L. Prepared radioligand (20 μl) was incubated (60 min, RT) and with 20 μl of either the 10% DMSO control, Risperidone (10^−6 mol/L final concentration), or compound of interest, then with membrane preparations (80 μl). Overnight incubation followed after addition of WGA-coated PVT SPA beads (250 μl; Amersham) and membrane-bound counts measured in a Wallac Microbeta. % Specific bound and competition binding curves were calculated using S-Plus software (Insightful).

T1 sequence (P31645 whole entry): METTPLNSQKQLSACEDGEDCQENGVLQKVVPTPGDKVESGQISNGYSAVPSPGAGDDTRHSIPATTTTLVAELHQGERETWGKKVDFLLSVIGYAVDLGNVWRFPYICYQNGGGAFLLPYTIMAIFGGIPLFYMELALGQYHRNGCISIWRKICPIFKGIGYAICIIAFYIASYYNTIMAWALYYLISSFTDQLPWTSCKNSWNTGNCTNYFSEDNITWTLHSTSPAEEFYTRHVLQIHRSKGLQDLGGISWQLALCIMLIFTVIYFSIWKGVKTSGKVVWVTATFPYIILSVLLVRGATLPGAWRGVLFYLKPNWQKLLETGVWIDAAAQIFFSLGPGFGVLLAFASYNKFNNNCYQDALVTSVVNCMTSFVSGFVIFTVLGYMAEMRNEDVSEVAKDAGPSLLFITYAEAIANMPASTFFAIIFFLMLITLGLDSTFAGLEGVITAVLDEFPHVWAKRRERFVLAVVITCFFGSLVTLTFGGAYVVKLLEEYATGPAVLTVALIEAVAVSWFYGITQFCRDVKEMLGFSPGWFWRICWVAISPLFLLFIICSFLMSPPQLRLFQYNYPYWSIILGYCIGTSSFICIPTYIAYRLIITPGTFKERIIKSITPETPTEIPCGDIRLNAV

On to `COc1cc2c(cc1OC)C1=NOC(CN3CC=C(c4c[nH]c5ccc(F)cc45)CC3)C1CO2` (single isomer, unassigned) [Compound 3], for which the “pIC50 5HTT” value in assay [1] turned out to be 7.4. In assay [2], the “pIC50 5-HT1A” value came out at 6.8. Further, the “pIC50 D2” value in assay [3] came to 6.0. In assay [4], the “pIC50 D3” value turned out to be 7.0.
For the compound `COc1cc2c(cc1OC)C1=NOC(CN3CCC(c4c[nH]c5cc(F)ccc45)CC3)C1CO2` (racemic) [Compound 26], in assay [1], the “pIC50 5HTT” value worked out at 7.6. The “pIC50 5-HT1A” value in assay [2] is 8.2. In addition, the “pIC50 D2” value in assay [3] is listed as 7.9. Also, in assay [4], the “pIC50 D3” value is 6.7.
The matching figures for `COc1cc2c(cc1OC)C1=NOC(CNCCCc3c[nH]c4ccc(F)cc34)C1CO2` (single isomer, unassigned) [Compound 4]: 7.8, 8.6, 6.1 and 6.7.
Turning to `COc1cc2c(cc1OC)C1=NOC(CN3CCC(c4c[nH]c5ccc(Cl)cc45)CC3)C1CO2` (racemic) [Compound 32], in assay [1], the “pIC50 5HTT” value was 7.4. Further, the “pIC50 5-HT1A” value in assay [2] is listed as 8.5. Further, the “pIC50 D2” value in assay [3] worked out at 6.8. Moreover, the “pIC50 D3” value in assay [4] was determined as 6.6.
Take `COc1cc2c(cc1OC)C1=NOC(CN3CCC(c4c[nH]c5c(F)cccc45)CC3)C1CO2` (racemic) [Compound 30]: the “pIC50 5HTT” value in assay [1] is given as 6.5. Also, the “pIC50 5-HT1A” value in assay [2] is recorded as 7.4. Also, the “pIC50 D2” value in assay [3] amounted to 6.0. Also, the “pIC50 D3” value in assay [4] is given as 6.4.
For `COc1cc2c(cc1OC)C1=NOC(CN3CCC(c4c[nH]c5ccc(N)cc45)CC3)C1CO2` (racemic) [Compound 20], in that order: 5.4, 7.6, 6.2 and below 6.
The matching figures for `COc1ccc2[nH]cc(C3=CCN(CC4ON=C5c6cc(OC)c(OC)cc6OCC54)CC3)c2c1` (racemic) [Compound 7]: 6.4, 8.1, below 6 and below 6.
The matching figures for `COc1cc2c(cc1OC)C1=NOC(CN3CC=C(c4c[nH]c5ccc(F)cc45)CC3)C1CO2` (single isomer, unassigned) [Compound 12]: 8.0, 7.6, 6.5 and 7.3.
With `COc1cc2c(cc1OC)C1=NOC(CN3CC=C(c4c[nH]c5ccc(Cl)cc45)CC3)C1CO2` (racemic) [Compound 25], the “pIC50 5HTT” value in assay [1] is recorded as 7.1. Further, the “pIC50 5-HT1A” value in assay [2] worked out at 8.3. Moreover, the “pIC50 D2” value in assay [3] is 6.6. Besides, in assay [4], the “pIC50 D3” value is reported as 6.9.
On to `COc1cc2c(cc1OC)C1=NOC(CN3CC=C(c4c[nH]c5cccc(F)c45)CC3)C1CO2` (racemic) [Compound 9], for which, in assay [1], the “pIC50 5HTT” value is given as 7.5. Moreover, in assay [2], the “pIC50 5-HT1A” value is 8.2. Further, the “pIC50 D2” value in assay [3] worked out at 6.1. In addition, the “pIC50 D3” value in assay [4] is on record as 6.6.
Turning to `COc1cc2c(cc1OC)C1=NOC(CN3CCC(c4c[nH]c5ccc(F)cc45)CC3)C1CO2` (single isomer, unassigned) [Compound 11], in assay [1], the “pIC50 5HTT” value was found to be 6.9. Also, the “pIC50 5-HT1A” value in assay [2] is given as 8.9. In assay [3], the “pIC50 D2” value turned out to be 7.2. The “pIC50 D3” value in assay [4] is 7.2.
On to `COc1cc2c(cc1OC)C1=NOC(CN3CC=C(c4c[nH]c5ccc(-c6ccccc6)cc45)CC3)C1CO2` (racemic) [Compound 22], for which the IC50 in assay [1] was 2510 nM; in assay [2], 25.1 nM; in assay [3] it was 3980 nM; in assay [4], 3160 nM.
On to `COc1cc2c(cc1OC)C1=NOC(CN3CC=C(c4c[nH]c5ccc(C)cc45)CC3)C1CO2` (racemic) [Compound 18], for which the “pIC50 5HTT” value in assay [1] turned out to be 7.0. Also, in assay [2], the “pIC50 5-HT1A” value worked out at 8.2. Also, in assay [3], the “pIC50 D2” value stood at 6.4. Moreover, the “pIC50 D3” value in assay [4] was found to be 6.4.
`COc1cc2c(cc1OC)C1=NOC(CN3CCC(c4c[nH]c5ccc(C#N)cc45)CC3)C1CO2` (racemic) [Compound 24]: the “pIC50 5HTT” value in assay [1] came to 7.4. The “pIC50 5-HT1A” value in assay [2] stood at 8.7. Besides, the “pIC50 D2” value in assay [3] was 6.4. Further, the “pIC50 D3” value in assay [4] came out at 6.9.
Turning to `COc1cc2c(cc1OC)C1=NOC(CN3CCC(c4c[nH]c5ccc(F)cc45)CC3)C1CO2` (racemic) [Compound 2], in assay [1], the “pIC50 5HTT” value is on record as 7.4. In addition, in assay [2], the “pIC50 5-HT1A” value is on record as 8.8. Also, in assay [3], the “pIC50 D2” value is 7.2. The “pIC50 D3” value in assay [4] is on record as 7.2.
Consider `COc1cc2c(cc1OC)C1=NOC(CN3CCC(c4c[nH]c5cccc(F)c45)CC3)C1CO2` (racemic) [Compound 17], for which the “pIC50 5HTT” value in assay [1] is 7.6. Also, the “pIC50 5-HT1A” value in assay [2] is recorded as 8.2. Besides, in assay [3], the “pIC50 D2” value is given as 6.9. For the same compound, the “pIC50 D3” value in assay [4] is recorded as 6.3.
Consider `COc1cc2c(cc1OC)C1=NOC(CN3CC=C(c4c[nH]c5ccc(O)cc45)CC3)C1CO2` (racemic) [Compound 21], for which the IC50 was 39.8 nM in assay [1], 12.6 nM in assay [2], 631 nM in assay [3] and 158 nM in assay [4].
